One experiment addresses T1, GLUT1 (Homo sapiens, UniProt P11166).
T1 sequence (P11166 1-492): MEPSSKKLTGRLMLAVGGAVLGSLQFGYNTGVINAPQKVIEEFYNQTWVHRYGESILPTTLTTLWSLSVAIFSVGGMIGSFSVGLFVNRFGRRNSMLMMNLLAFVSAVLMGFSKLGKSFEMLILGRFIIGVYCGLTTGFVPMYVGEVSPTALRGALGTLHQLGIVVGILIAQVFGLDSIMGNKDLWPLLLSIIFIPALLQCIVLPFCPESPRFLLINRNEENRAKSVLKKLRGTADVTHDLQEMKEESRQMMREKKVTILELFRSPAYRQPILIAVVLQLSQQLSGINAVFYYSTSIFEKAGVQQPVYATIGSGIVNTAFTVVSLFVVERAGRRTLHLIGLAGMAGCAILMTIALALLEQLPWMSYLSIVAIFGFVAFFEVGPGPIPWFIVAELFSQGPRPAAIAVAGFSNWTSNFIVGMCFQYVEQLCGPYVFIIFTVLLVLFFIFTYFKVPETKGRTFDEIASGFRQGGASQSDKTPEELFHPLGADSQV
As to the kind of experiment: Indirect measurement of GLUT1 activity by quantification of intracellular ATP levels (glucose induced ATP increase). The format is cell-based. Set-up: endogenous in cells; host or cells: DLD1 or CHO-K1. As to conditions: DLD1 cells; 0.1 mM glucose, 1 μM Rotenone, 15 min; CellTiter-Glo ATP readout; IC50 values standardized to cytochalasin B IC50 values; read-out: IC50 regarding glucose induced ATP increase (GLUT1 inhibition). The procedure, abridged:
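Intracellular ATP was measured by CellTiter-Glo luminescence as an indirect readout of transport: glucose-driven for GLUT1, fructose-driven for GLUT2. DLD1 or CHO-K1 cells were used alongside an oxidative phosphorylation inhibitor. Beforehand, cells were held overnight in glucose-free 1% FCS medium to deplete ATP.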
On the technique in general: Cellular ATP, detected with luciferase, serves as a proxy for viable cell number.
With `Cc1nn(Cc2ccc(F)cc2)c(C)c1NC(=O)c1cc(C(F)(F)F)nc2ccccc12` [Example 181, N-[1-(4-fluorobenzyl)-3,5-dimethyl-1H-pyrazol-4-yl]-2-(trifluoromethyl)quinoline-4-carboxamide], the IC50 is 93.8 nM.

Still in this experiment, the particulars now being: read-out: IC50 regarding glucose induced ATP increase (GLUT1 inhibition).
`Cc1nn(Cc2ccc(C(=O)Nc3cccnc3)cc2)c(C)c1NC(=O)c1cc(C(F)(F)F)nc2ccc(Br)cc12` [Example 1045]: the IC50 amounted to 9.4 nM. The same measure, in the same setting: the result for `CC(=O)c1ccc(Cn2nc(C(F)(F)F)c(NC(=O)c3cc(C(N)=O)nc4cccc(F)c34)c2C)cc1` [Example 1606] reads 2.4 nM. The same measure, in the same setting: with `Cc1c(NC(=O)c2cc(C(N)=O)nc3cc(F)ccc23)c(C(F)(F)F)nn1Cc1ccc(C#N)cn1` [Example 360, N^4-{1-[(5-cyanopyridin-2-yl)methyl]-5-methyl-3-(trifluoromethyl)-1H-pyrazol-4-yl}-7-fluoroquinoline-2,4-dicarboxamide] the figure was 2 nM. The same measure, in the same setting: the result for `Cc1nn(Cc2ccc(F)cc2)c(C)c1NC(=O)c1cc(C2CC2)nc2ccc(Br)cc12` [Example 12, 6-bromo-2-cyclopropyl-N-[1-(4-fluorobenzyl)-3,5-dimethyl-1H-pyrazol-4-yl]quinoline-4-carboxamide] reads 7.7 nM; that for `Cc1c(NC(=O)c2cc(C(N)=O)nc3ccc(N4CCCCC4)cc23)c(C(F)(F)F)nn1Cc1ccc(C#N)cc1` [Example 345, N^4-[1-(4-cyanobenzyl)-5-methyl-3-(trifluoromethyl)-1H-pyrazol-4-yl]-6-(piperidin-1-yl)quinoline-2,4-dicarboxamide], 7.2 nM; that for `Cc1c(NC(=O)c2cc(C(N)=O)nc3ccc(Br)cc23)c(C(F)(F)F)nn1Cc1ccc(OC(F)(F)F)cc1` [Example 1498], 8 nM. Take `COc1cc(C(=O)Nc2c(C(F)(F)F)nn(Cc3ccncc3)c2C)c2ccccc2n1` [Example 1366]: the IC50 was determined as 38.1 nM. Still for that read-out and setting: the result for `COc1cc(C(=O)Nc2c(C)nn(Cc3ccc(OC)c(F)c3)c2C)c2ccccc2n1` [Example 239, N-[1-(3-fluoro-4-methoxybenzyl)-3,5-dimethyl-1H-pyrazol-4-yl]-2-methoxyquinoline-4-carboxamide] reads 2.9 nM; that for `Cc1nn(Cc2ccc(C(=O)Nc3ccncc3)cc2)c(C)c1NC(=O)c1cc(C(F)(F)F)nc2ccc(Br)cc12` [Example 1173], 198 nM; that for `Cc1nn(Cc2ccc(F)c(F)c2)c(C)c1NC(=O)c1cc(C(F)(F)F)nc2ccc(Br)cc12` [Example 47, 6-bromo-N-[1-(3,4-difluorobenzyl)-3,5-dimethyl-1H-pyrazol-4-yl]-2-(trifluoromethyl)quinoline-4-carboxamide], 44.4 nM. Still for that read-out and setting: with `Cc1nn(Cc2ccc(C(=O)NCC3CC3(F)F)cc2)c(C)c1NC(=O)c1cc(C(F)(F)F)nc2ccc(Br)cc12` (stereo not shown) [Example 1123] the figure was 71.1 nM; with `Cc1c(NC(=O)c2cc(C(N)=O)nc3cccc(F)c23)c(C(F)(F)F)nn1Cc1ccc(C(C)(C)C#N)cc1` [Example 1597], 89.9 nM. On the same count and under the same terms, with `Cc1cccnc1Cn1nc(C)c(NC(=O)c2cc(C(F)(F)F)nc3ccc(Br)cc23)c1C` [Example 116, 6-bromo-N-{3,5-dimethyl-1-[(3-methylpyridin-2-yl)methyl]-1H-pyrazol-4-yl}-2-(trifluoromethyl)quinoline-4-carboxamide] the figure was 889 nM; with `Cc1nn(Cc2ccc(C(=O)NCc3ccccc3)cc2)c(C)c1NC(=O)c1cc(C(F)(F)F)nc2ccc(Br)cc12` [Example 140, N-{1-[4-(benzylcarbamoyl)benzyl]-3,5-dimethyl-1H-pyrazol-4-yl}-6-bromo-2-(trifluoromethyl)quinoline-4-carboxamide], 50 nM. Regarding `Cc1ccc(C#N)c(Cn2nc(C)c(NC(=O)c3cc(C(N)=O)nc4cc(F)c(Cl)cc34)c2C)c1` [Example 1699], the IC50 worked out at 11.3 nM. On the same count and under the same terms, the result for `COc1cccc(Cn2nc(C)c(NC(=O)c3cc(C(N)=O)nc4cccc(F)c34)c2C)c1` [Example 1451] reads 8.5 nM; that for `COc1cc(C#N)ccc1Cn1nc(C(F)(F)F)c(NC(=O)c2cc(C(N)=O)nc3cc(F)c(Cl)cc23)c1C` [Example 1648], 2.3 nM; that for `Cc1nn(CC2CCN(S(=O)(=O)c3cccnc3)CC2)c(C)c1NC(=O)c1cc(C(N)=O)nc2ccccc12` [Example 1514], 493 nM. Still for that read-out and setting: with `COc1ccc(Cn2nc(C)c(NC(=O)c3cc(C(N)=O)nc4cc(F)c(F)cc34)c2C)cc1` [Example 226, 6,7-difluoro-N^4-[1-(4-methoxybenzyl)-3,5-dimethyl-1H-pyrazol-4-yl]quinoline-2,4-dicarboxamide] the figure was 4 nM. Still for that read-out and setting: with `COC(=O)Cc1ccc(Cn2nc(C)c(NC(=O)c3cc(C(F)(F)F)nc4ccc(Br)cc34)c2C)cc1` [Example 150, methyl (4-{[4-({[6-bromo-2-(trifluoromethyl)quinolin-4-yl]carbonyl}amino)-3,5-dimethyl-1H-pyrazol-1-yl]methyl}phenyl)acetate] the figure was 11.7 nM; with `C=Cc1ccc(Cn2nc(C)c(NC(=O)c3cc(OC)nc4ccccc34)c2C)cc1` [Example 1172], 198 nM. In the case of `Cc1nn(Cc2ccc(C(=O)N3CCN(C)CC3)cc2)c(C)c1NC(=O)c1cc(C(F)(F)F)nc2ccc(Br)cc12` [Example 1212], the IC50 came out at 598 nM. Still for that read-out and setting: with `Cc1nn(Cc2ccc(C(=O)NCC(N)=O)cc2)c(C)c1NC(=O)c1cc(C(F)(F)F)nc2ccc(Br)cc12` [Example 1223] the figure was 891 nM; with `Cc1nn(C(C)c2ccccc2)c(C)c1NC(=O)c1cc(C(N)=O)nc2ccccc12` (racemic) [Example 1362], 5.8 nM. On the same count and under the same terms, with `COc1cc2c(C(=O)Nc3c(C(F)(F)F)nn(Cc4ccc(C#N)cc4)c3C)cc(C(N)=O)nc2cc1F` [Example 242, N^4-[1-(4-cyanobenzyl)-5-methyl-3-(trifluoromethyl)-1H-pyrazol-4-yl]-7-fluoro-6-methoxyquinoline-2,4-dicarboxamide] the figure was 1 nM; with `Cc1nn(Cc2ccc(C(=O)NCc3cn(C)cn3)cc2)c(C)c1NC(=O)c1cc(C(F)(F)F)nc2ccc(Br)cc12` [Example 1125], 78.5 nM.

As for `Cc1nn(Cc2c(F)cc(C#N)cc2F)c(C)c1NC(=O)c1cc(C(N)=O)nc2ccc(Br)cc12` [Example 394, 6-bromo-N^4-[1-(4-cyano-2,6-difluorobenzyl)-3,5-dimethyl-1H-pyrazol-4-yl]quinoline-2,4-dicarboxamide], the IC50 came out at 2.6 nM.

Consider `Cc1nn(Cc2cccc(S(C)(=O)=O)c2)c(C)c1NC(=O)c1cc(C(N)=O)nc2cc(F)ccc12` [Example 1640], for which the IC50 came to 277 nM. On the same count and under the same terms, the result for `CNC(=O)c1nc(Cn2nc(C)c(NC(=O)c3cc(C(N)=O)nc4ccccc34)c2C)no1` [Example 1509] reads 16.3 nM; that for `Cc1c(NC(=O)c2cc(C(N)=O)nc3cc(F)ccc23)c(C(F)(F)F)nn1C(C)c1ccccc1` (single isomer, unassigned) [Example 335, (R or S)-7-fluoro-N^4-[5-methyl-1-(1-phenylethyl)-3-(trifluoromethyl)-1H-pyrazol-4-yl]quinoline-2,4-dicarboxamide], 1.6 nM.

Regarding `Cc1c(NC(=O)c2cc(C(N)=O)nc3cccc(F)c23)c(C(F)(F)F)nn1Cc1cccc(C(N)=O)c1` [Example 1602], the IC50 was 29.3 nM. Still for that read-out and setting: the result for `CNS(=O)(=O)c1cc(C(=O)Nc2c(C(F)(F)F)nn(Cc3ccc(C#N)cc3)c2C)c2ccccc2n1` [Example 1574] reads 49.3 nM. On the same count and under the same terms, with `Cc1c(NC(=O)c2cc(C(N)=O)nc3cc(F)c(Cl)cc23)c(C(F)(F)F)nn1Cc1ccncc1C#N` [Example 287, 6-chloro-N^4-{1-[(3-cyanopyridin-4-yl)methyl]-5-methyl-3-(trifluoromethyl)-1H-pyrazol-4-yl}-7-fluoroquinoline-2,4-dicarboxamide] the figure was 4.8 nM; with `Cc1nn(Cc2ccncc2C#N)c(C)c1NC(=O)c1cc(C(N)=O)nc2cc(F)c(Cl)cc12` [Example 285, 6-chloro-N^4-{1-[(3-cyanopyridin-4-yl)methyl]-3,5-dimethyl-1H-pyrazol-4-yl}-7-fluoroquinoline-2,4-dicarboxamide], 3.4 nM. On to `Cc1nn(Cc2ccc(C(C)(C)C)cc2)c(C)c1NC(=O)c1cc(C(N)=O)nc2cc(F)ccc12` [Example 1383], for which the IC50 was determined as 140 nM. The same measure, in the same setting: with `Cc1cc(Cn2nc(C)c(NC(=O)c3cc(C(N)=O)nc4cccc(F)c34)c2C)ccc1C#N` [Example 1697] the figure was 0.5 nM; with `Cc1nn(Cc2ccc(C#N)cc2)c(C)c1NC(=O)c1cc(C(N)=O)nc2c(F)cc(Cl)cc12` [Example 252, 6-chloro-N^4-[1-(4-cyanobenzyl)-3,5-dimethyl-1H-pyrazol-4-yl]-8-fluoroquinoline-2,4-dicarboxamide], 1.2 nM; with `Cc1nn(C(C)CCc2ccc(F)cc2)c(C)c1NC(=O)c1cc(C(F)(F)F)nc2ccc(Br)cc12` (racemic) [Example 1378], 643 nM. Still for that read-out and setting: the result for `COc1ccc(CCNC(=O)c2ccc(Cn3nc(C)c(NC(=O)c4cc(C(F)(F)F)nc5ccc(Br)cc45)c3C)cc2)cc1` [Example 1063] reads 16.8 nM.

Broadly, the IC50 is the concentration needed to halve the response being measured.

Source of the values: patent US20170037028A1 (BAYER PHARMA AKTIENGESELLSCHAFT, priority 2013, published 2017).
